Laboratory results published in US20130158127A1, “TEA TREE OIL DERIVATIVES” (priority 2011, published 2013).

Test system: Vero cells
Assay: Vero cell cytotoxicy assays (light microscopy of monolayers)

polysorbate 60 [PS-60] gave a sub-toxic dose (a small proportion of cells appeared to remain healthy) of 0.125% and a non-toxic dose (no changes compared to the untreated control) of 0.06%.
